Patent US20240148821A1, “PHARMACEUTICAL USE OF CYCLIC PEPTIDE COMPOUND” (CHUGAI SEIYAKU KABUSHIKI KAISHA, priority 2021, published 2024)
Bridge positions count the residues as written; N and C are the ends. Square brackets hold non-standard residues; d marks the D form. Peptide text beside a SMILES is read from it. * marks the point of attachment. hPhe(3,5-F2-4-CF3) = N[C@@H](CCc1cc(F)c(C(F)(F)F)c(F)c1)C(=O)O; hPhe(3-Cl-4-CF3) = N[C@@H](CCc1ccc(C(F)(F)F)c(Cl)c1)C(=O)O; hPhe(3-F,4-CF3) = N[C@@H](CCc1ccc(C(F)(F)F)c(F)c1)C(=O)O; NMePhe(4-CF3) = CN[C@@H](Cc1ccc(C(F)(F)F)cc1)C(=O)O; 3Oxa8azabicyclo(3.2.1)octane = C1CC2COCC1N2*; NMeAbu(4,4,4-F3) = CN[C@@H](CC(F)(F)F)C(=O)O; NMePhe(4-Me) = CN[C@@H](Cc1ccc(C)cc1)C(=O)O; NMeGly(cPent) = CN[C@H](C(=O)O)C1CCCC1; Pro(4,4-F2) = O=C(O)[C@@H]1CC(F)(F)CN1; NMeCha = CN[C@@H](CC1CCCCC1)C(=O)O; Hyp = O=C(O)[C@@H]1C[C@@H](O)CN1; NEtLeu = CCN[C@@H](CC(C)C)C(=O)O; NMeChg = CN[C@H](C(=O)O)C1CCCCC1; NMeI = CC[C@H](C)[C@H](NC)C(=O)O; X17 = FC1(F)CN(*)CC(F)(F)C1(F)F; NMeD = CN[C@@H](CC(=O)O)C(=O)O; NMeL = CN[C@@H](CC(C)C)C(=O)O; NMeNva = CCC[C@H](NC)C(=O)O; NMeV = CN[C@H](C(=O)O)C(C)C; d(β3hA) = C[C@@H](N)CC(=O)O; Azetidin(1-yl) = C1CN(*)C1; Morpholide = C1CN(*)CCO1; NMeA = CN[C@@H](C)C(=O)O; Piperidide = C1CCN(*)CC1; Pyrrolidide = C1CCN(*)C1; Ac5c = NC1(C(=O)O)CCCC1; Aze = O=C(O)[C@@H]1CCN1; Ac4c = NC1(C(=O)O)CCC1; Sar = CNCC(=O)O

Columns and labels:
[1] = target: protein-protein interaction between Kras and SOS1 (biotin-tagged human Kras loaded with GDP, His-tagged human SOS1) (Homo sapiens (Human), UniProt P01116, G12D); assay: Protein-protein interaction inhibition between Kras and SOS1 (KrasG12D-SOS PPI) using AlphaScreen; assay type: biochemical; conditions: AlphaScreen; biotin-tagged human Kras loaded with GDP, His-tagged human SOS1; read-out: KRAS G12D-SOS PPI IC50;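 further: kras produced in E. coli, Ni-coupled donor beads and streptavidin acceptor beads, excitation 680 nm with emission detected at 520–620 nm via singlet oxygen transfer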
[2] = tested on: Human pancreatic cancer cell line AsPC-1 (G12D mutation Kras); assay: AsPC-1 cell growth inhibition (AsPC-1 CGI); assay type: cell-based; conditions: read-out: AsPC-1 cell growth inhibition, 50% growth inhibitory concentration (IC50 value); 96 hours, CellTiter-Glo, values classified in ranges
Procedure: Test compounds were serially dilated with dimethyl sulfoxide, and 200 nL was then dispensed to a U-bottom 96-well plate using Labcyte Echo. […] The cell suspension was dispensed to a. plate containing a test compound at 100 μL per well and incubated at 37° C. in a 5% carbon dioxide gas incubator. 96 hours later, 80 μL of CellTiter-Glo (Promega) was added to each well and fluorescence was measured.

| Compound | IC50 [1] [µM] | IC50 [2] [µM] |
| --- | --- | --- |
| CC[C@H](C)[C@@H]1NC(=O)[C@H](CC(C)C)N(C)C(=O)C[C@@H](C(=O)N2CCCCC2)N(C)C(=O)[C@H](C(C)C)N(C)C(=O)[C@H](C)NC(=O)[C@@H]2CCCN2C(=O)[C@H](CCc2ccc(C(F)(F)F)c(Cl)c2)NC(=O)CN(C)C(=O)[C@H](CC2CCCCC2)N(C)C(=O)[C@@H]2CCN2C(=O)[C@H](C)N(C)C1=O [Compound 1211] ([NMeL]I[NMeA][Aze][NMeCha][Sar][hPhe(3-Cl-4-CF3)]PA[NMeV][NMeD]-Piperidide; lactam N-11) | 0.031 | > 0.5 |
| CC[C@H](C)[C@@H]1NC(=O)[C@H](CC(C)C)N(C)C(=O)C[C@@H](C(=O)N2C3CCC2COC3)NC(=O)[C@H](C(C)C)N(C)C(=O)C2(CCCC2)NC(=O)[C@@H]2CCCN2C(=O)[C@H](CCc2ccc(C(F)(F)F)c(Cl)c2)NC(=O)CN(C)C(=O)[C@H](CC2CCCCC2)N(C)C(=O)[C@@H]2CCN2C(=O)[C@H](C)N(C)C1=O [Compound 1214] ([NMeL]I[NMeA][Aze][NMeCha][Sar][hPhe(3-Cl-4-CF3)]P[Ac5c][NMeV]D-{3Oxa8azabicyclo(3.2.1)octane}; lactam N-11) | 0.077 | > 0.5 |
| CC[C@H](C)[C@@H]1NC(=O)[C@H](CC(C)C)N(CC)C(=O)C[C@@H](C(=O)N2CCOCC2)N(C)C(=O)[C@H](C2CCCC2)N(C)C(=O)C2(CCCC2)NC(=O)[C@@H]2CCCN2C(=O)[C@H](CCc2ccc(C(F)(F)F)c(Cl)c2)NC(=O)CN(C)C(=O)[C@H](CC2CCCCC2)N(C)C(=O)[C@@H]2CCN2C(=O)[C@H](C)N(C)C1=O [Compound 1220] ([NEtLeu]I[NMeA][Aze][NMeCha][Sar][hPhe(3-Cl-4-CF3)]P[Ac5c][NMeGly(cPent)][NMeD]-Morpholide; lactam N-11) | 0.00064 | ≤ 0.02 |
| CC[C@H](C)[C@@H]1NC(=O)[C@H](CC(C)C)N(C)C(=O)C[C@@H](C)NC(=O)[C@H](C2CCCC2)N(C)C(=O)[C@@H](C)NC(=O)[C@@H]2CCCN2C(=O)[C@H](CCc2ccc(C(F)(F)F)c(Cl)c2)NC(=O)CN(C)C(=O)[C@H](Cc2ccc(C)cc2)N(C)C(=O)[C@@H]2CCN2C(=O)[C@H](C)N(C)C1=O [Compound 1222] (cyclo([Aze][NMePhe(4-Me)][Sar][hPhe(3-Cl-4-CF3)]P[dA][NMeGly(cPent)][d(β3hA)][NMeL]I[NMeA])) | 0.025 | > 0.5 |
| CCC[C@H]1C(=O)N[C@@H]([C@@H](C)CC)C(=O)N(C)CC(=O)N(C)CC(=O)N(C)[C@@H](Cc2ccc(C)cc2)C(=O)N(C)CC(=O)N[C@@H](CCc2cc(F)c(C(F)(F)F)c(F)c2)C(=O)N2C[C@H](OCC)C[C@H]2C(=O)NC2(CCCC2)C(=O)N(C)[C@@H](C2CCCCC2)C(=O)N(C)[C@H](C(=O)N2CCCC2)CC(=O)N1C [Compound 1224] ([NMeNva]I[Sar][Sar][NMePhe(4-Me)][Sar][hPhe(3,5-F2-4-CF3)][Hyp](Et)[Ac5c][NMeChg][NMeD]-Pyrrolidide; lactam N-11) | 0.00067 | ≤ 0.02 |
| CC[C@H](C)[C@@H]1NC(=O)[C@H](CC(C)C)N(C)C(=O)C[C@@H](C(=O)N2CC(F)(F)C(F)(F)C(F)(F)C2)N(C)C(=O)[C@H](C2CCCCC2)N(C)C(=O)C2(CCCC2)NC(=O)[C@@H]2CCCN2C(=O)[C@H](CCc2ccc(C(F)(F)F)c(Cl)c2)NC(=O)CN(C)C(=O)[C@H](CC2CCCCC2)N(C)C(=O)CN(C)C(=O)CN(C)C1=O [Compound 1229] ([NMeL]I[Sar][Sar][NMeCha][Sar][hPhe(3-Cl-4-CF3)]P[Ac5c][NMeChg][NMeD]-X17; lactam N-11) | 0.046 | > 0.5 |
| CCO[C@@H]1C[C@H]2C(=O)NC3(CCCC3)C(=O)N(C)[C@@H](C3CCCC3)C(=O)N(C)[C@H](C(=O)N(C)C)CC(=O)N(C)[C@@H](CC(C)C)C(=O)N[C@@H]([C@@H](C)CC)C(=O)N(C)[C@@H](C)C(=O)N3CC[C@H]3C(=O)N(C)[C@@H](CC3CCCCC3)C(=O)N(C)CC(=O)N[C@@H](CCc3ccc(C(F)(F)F)c(F)c3)C(=O)N2C1 [Compound 1231] ([NMeL]I[NMeA][Aze][NMeCha][Sar][hPhe(3-F,4-CF3)][Hyp](Et)[Ac5c][NMeGly(cPent)][NMeD]-NMe2; lactam N-11) | 0.00059 | ≤ 0.02 |
| CC[C@H](C)[C@@H]1NC(=O)[C@H](CC(C)C)N(CC)C(=O)C[C@@H](C(=O)N2CCOCC2)N(C)C(=O)[C@H]([C@@H](C)CC)N(C)C(=O)C2(CCCC2)NC(=O)[C@@H]2CCCN2C(=O)[C@H](CCc2ccc(C(F)(F)F)c(Cl)c2)NC(=O)CN(C)C(=O)[C@H](Cc2ccc(C(F)(F)F)cc2)N(C)C(=O)[C@@H]2CCN2C(=O)[C@H](C)N(C)C1=O [Compound 1234] ([NEtLeu]I[NMeA][Aze][NMePhe(4-CF3)][Sar][hPhe(3-Cl-4-CF3)]P[Ac5c][NMeI][NMeD]-Morpholide; lactam N-11) | 0.0045 | ≤ 0.02 |
| CCO[C@@H]1C[C@H]2C(=O)NC3(CCC3)C(=O)N(C)[C@@H](C3CCCCC3)C(=O)N(C)[C@H](C(=O)N3CCCC3)CC(=O)N(C)[C@@H](CC(C)C)C(=O)N[C@@H]([C@@H](C)CC)C(=O)N(C)CC(=O)N(C)CC(=O)N(C)[C@@H](CC3CCCCC3)C(=O)N(C)CC(=O)N[C@@H](CCc3ccc(C(F)(F)F)c(Cl)c3)C(=O)N2C1 [Compound 1241] ([NMeL]I[Sar][Sar][NMeCha][Sar][hPhe(3-Cl-4-CF3)][Hyp](Et)[Ac4c][NMeChg][NMeD]-Pyrrolidide; lactam N-11) | 0.0005 | ≤ 0.02 |
| CC[C@H](C)[C@@H]1NC(=O)[C@H](CC(C)C)N(C)C(=O)C[C@@H](C(=O)N2CCCC2)N(C)C(=O)[C@H]([C@@H](C)CC)N(C)C(=O)C2(CCCC2)NC(=O)[C@@H]2CC(F)(F)CN2C(=O)[C@H](CCc2ccc(C(F)(F)F)c(Cl)c2)NC(=O)CN(C)C(=O)[C@H](Cc2ccc(C(F)(F)F)cc2)N(C)C(=O)[C@@H]2CCN2C(=O)[C@H](C)N(C)C1=O [Compound 1242] ([NMeL]I[NMeA][Aze][NMePhe(4-CF3)][Sar][hPhe(3-Cl-4-CF3)][Pro(4,4-F2)][Ac5c][NMeI][NMeD]-Pyrrolidide; lactam N-11) | 0.00052 | ≤ 0.02 |
| CC[C@H](C)[C@@H]1NC(=O)[C@H](CC(C)C)N(C)C(=O)C[C@@H](C(=O)N2CCC2)N(C)C(=O)[C@H](C2CCCC2)N(C)C(=O)C2(CCCC2)NC(=O)[C@@H]2CC(F)(F)CN2C(=O)[C@H](CCc2cc(F)c(C(F)(F)F)c(F)c2)NC(=O)CN(C)C(=O)[C@H](CC2CCCCC2)N(C)C(=O)[C@@H]2CCN2C(=O)[C@H](C)N(C)C1=O [Compound 1248] ([NMeL]I[NMeA][Aze][NMeCha][Sar][hPhe(3,5-F2-4-CF3)][Pro(4,4-F2)][Ac5c][NMeGly(cPent)][NMeD]-{Azetidin(1-yl)}; lactam N-11) | 0.00067 | ≤ 0.02 |
| CCO[C@@H]1C[C@H]2C(=O)NC3(CCCC3)C(=O)N(C)[C@@H](C3CCCC3)C(=O)N(C)[C@H](C(=O)N3CCOCC3)CC(=O)N(C)[C@@H](CC(C)C)C(=O)N[C@@H]([C@@H](C)CC)C(=O)N(C)[C@@H](C)C(=O)N3CC[C@H]3C(=O)N(C)[C@@H](CC3CCCCC3)C(=O)N(C)CC(=O)N[C@@H](CCc3cc(F)c(C(F)(F)F)c(F)c3)C(=O)N2C1 [Compound 1250] ([NMeL]I[NMeA][Aze][NMeCha][Sar][hPhe(3,5-F2-4-CF3)][Hyp](Et)[Ac5c][NMeGly(cPent)][NMeD]-Morpholide; lactam N-11) | 0.00063 | ≤ 0.02 |
| CCO[C@@H]1C[C@H]2C(=O)NC3(CCCC3)C(=O)N(C)[C@@H](C3CCCC3)C(=O)N(C)[C@H](C(=O)N3CCOCC3)CC(=O)N(C)[C@@H](CC(C)C)C(=O)N[C@@H]([C@@H](C)CC)C(=O)N(C)[C@@H](C)C(=O)N3CC[C@H]3C(=O)N(C)[C@@H](CC3CCCCC3)C(=O)N(C)CC(=O)N[C@@H](CCc3ccc(C(F)(F)F)c(Cl)c3)C(=O)N2C1 [Compound 1259] ([NMeL]I[NMeA][Aze][NMeCha][Sar][hPhe(3-Cl-4-CF3)][Hyp](Et)[Ac5c][NMeGly(cPent)][NMeD]-Morpholide; lactam N-11) | 0.00049 | ≤ 0.02 |
| CC[C@H](C)[C@@H]1NC(=O)[C@H](CC(C)C)N(C)C(=O)C[C@@H](C(=O)N(C)C)N(C)C(=O)[C@H](C2CCCC2)N(C)C(=O)C2(CCCC2)NC(=O)[C@@H]2CC(F)(F)CN2C(=O)[C@H](CCc2ccc(C(F)(F)F)c(F)c2)NC(=O)CN(C)C(=O)[C@H](CC2CCCCC2)N(C)C(=O)[C@@H]2CCN2C(=O)[C@H](C)N(C)C1=O [Compound 1264] ([NMeL]I[NMeA][Aze][NMeCha][Sar][hPhe(3-F,4-CF3)][Pro(4,4-F2)][Ac5c][NMeGly(cPent)][NMeD]-NMe2; lactam N-11) | 0.00054 | ≤ 0.02 |
| CCC[C@H]1C(=O)N[C@@H]([C@@H](C)CC)C(=O)N(C)CC(=O)N(C)CC(=O)N(C)[C@@H](CC2CCCCC2)C(=O)N(C)CC(=O)N[C@@H](CCc2ccc(C(F)(F)F)c(Cl)c2)C(=O)N2C[C@H](OCC)C[C@H]2C(=O)NC2(CCCC2)C(=O)N(C)[C@@H](C2CCCCC2)C(=O)N(C)[C@H](C(=O)N2CCCC2)CC(=O)N1C [Compound 1267] ([NMeNva]I[Sar][Sar][NMeCha][Sar][hPhe(3-Cl-4-CF3)][Hyp](Et)[Ac5c][NMeChg][NMeD]-Pyrrolidide; lactam N-11) | 0.00036 | ≤ 0.02 |
| CCO[C@@H]1C[C@H]2C(=O)NC3(CCCC3)C(=O)N(C)[C@@H](C3CCCCC3)C(=O)N(C)[C@H](C(=O)N3CCCC3)CC(=O)N(C)[C@@H](CC(F)(F)F)C(=O)N[C@@H]([C@@H](C)CC)C(=O)N(C)CC(=O)N(C)CC(=O)N(C)[C@@H](Cc3ccc(C(F)(F)F)cc3)C(=O)N(C)CC(=O)N[C@@H](CCc3cc(F)c(C(F)(F)F)c(F)c3)C(=O)N2C1 [Compound 1271] ([NMeAbu(4,4,4-F3)]I[Sar][Sar][NMePhe(4-CF3)][Sar][hPhe(3,5-F2-4-CF3)][Hyp](Et)[Ac5c][NMeChg][NMeD]-Pyrrolidide; lactam N-11) | 0.00049 | ≤ 0.02 |
